In US10815276B2, “Cell penetrating peptides and methods of making and using thereof” (Entrada Therapeutics, Inc., priority 2014, dated 2020):
pIC50, pKd: −log10 of the molar value. Starred links: 1 amine or outer side, 2 acyl side, 3 side chain; linkers in the order of their positions; H or OH if unused. Positions of bridges follow the written chain, without caps; N, C: chain ends. Non-standard residues stand in square brackets, D forms with d. Residues, ends and D or L forms follow the SMILES beside them. No end group written: not given here. Trimesoyl = O=C(c1cc(C(=O)[*:2])cc(C(=O)[*:3])c1)[*:1]; Phe(4-F) = N[C@@H](Cc1ccc(F)cc1)C(=O)O; dPhe(4-F) = N[C@H](Cc1ccc(F)cc1)C(=O)O; 2Nal = N[C@@H](Cc1ccc2ccccc2c1)C(=O)O; Pip = O=C(O)[C@@H]1CCCCN1; Dap = NC[C@H](N)C(=O)O

Key:
[1] = target: T1, recombinant caspase-3 enzyme (Homo sapiens, UniProt P42574); experiment: In vitro fluorimetric caspase assay; assay type: biochemical; conditions: 10 μM substrate, 10 mM DTT
T1 construct: purchased EMD Chemicals (San Diego, Calif.)
T1 sequence (P42574 29-175 limits assumed): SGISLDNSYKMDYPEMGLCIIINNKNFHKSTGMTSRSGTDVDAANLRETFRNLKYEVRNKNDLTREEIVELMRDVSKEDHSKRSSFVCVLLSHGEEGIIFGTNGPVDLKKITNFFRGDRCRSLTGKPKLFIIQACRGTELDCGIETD
T1 sequence (P42574 176-277 limits assumed): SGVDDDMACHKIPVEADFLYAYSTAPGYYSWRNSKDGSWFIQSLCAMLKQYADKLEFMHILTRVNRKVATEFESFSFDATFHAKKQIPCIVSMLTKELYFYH
Description: Reagents for peptide synthesis were purchased from Advanced ChemTech (Louisville, Ky.), NovaBiochem (La Jolla, Calif.), or Anaspec (San Jose, Calif.). Rink resin LS (100-200 mesh, 0.2 mmol/g) was purchased from Advanced ChemTech. Dextrane^Rho, trypsin and α-chymotrypsin were purchased from Sigma-Aldrich (St. Louis, Mo.). Cell culture media, fetal bovine serum, penicillin-streptomycin, 0.25% trypsin-EDTA, and DPBS were purchased from Invitrogen (Carlsbad, Calif.). Nuclear staining dye DRAQ5 was purchased from Thermo Scientific (Rockford, Ill.). Caspase-3, Human, recombinant protein was purchased from EMD Chemicals (San Diego, Calif.).
0.5 μL (100 U/μL) caspase-3 enzyme was first incubated with 90 μL of reaction buffer (50 mM HEPES, pH 7.4, 100 mM NaCl, 10 mM DTT) for 30 min in 96-well plate. Fluorogenic substrates (10 μL, 100 μM) were mixed into the above solutions to start the reactions, and the plate was measured on a Spectramax M5 plate reader (Ex=360 nm, Em=440 nm) (Molecular Devices). Fluorescence units (FU) increase at one-minute intervals was correlated to the release of Amc due to protease activity. The ΔFU/min was calculated from the linear portion of the reaction curve. Reported values are averages of three trials with the standard deviation indicated.

HeLa cells [2] = experiment: Western blot of PML protein level; assay type: cell-based, human
Description: FIGS. 38A, 38B, 38C, and 38D display cellular activity of peptide 37. (FIG. 38A) Cellular uptake of peptides 1, 37, and 46 (5 μM) by HeLa cells as analyzed by flow cytometry. MFI, mean fluorescence intensity; none, untreated cells (no peptide). (FIG. 38B) Anti-proliferative effect of peptides 37, 46, and 47 on HeLa cells as measured by MTT assay. (FIG. 38C) Western blots showing the effect of peptides 1, 37 and 47 on the protein level of PML in HeLa cells. β-Actin was used as loading control. (FIG. 38D) Quantification of western blot results from (FIG. 38C). Data reported were after background subtraction and represent the mean±SD from 3 independent experiments.
Finally, to ascertain that Pin1 is the molecular target of peptide 37 in vivo, the intracellular protein level of a well-established Pin1 substrate, […] (PML), was examined by western blot analysis. Pin1 negatively regulates the PML level in a phosphorylation-dependent manner and inhibition of Pin1 activity is expected to stabilize PML and increase its intracellular level. […] The effect was already significant at 0.2 μM inhibitor (1.8-fold increase in the PML level) and plateaued at ˜1 μM (3.3-fold increase). Again, bicyclic peptide 47 had no effect under the same conditions, while peptide 1 (the positive control, at 5 μM) increased the PML level by 3.1-fold.

HeLa cells [3] = test system: HeLa cells
Description: The effect of peptide 37 on the growth of HeLa cells was examined by using the MTT cell viability assay.

Pin1 [4] = target: T2, Pin1 (Homo sapiens, UniProt Q13526, S16A/Y23A); experiment: FA competition with FITC-labeled peptide 1; conditions: 100 nM FITC-labeled peptide 1, 400 nM Pin1; read-out: IC50 for inhibiting binding of peptide 1 to Pin1
T2 construct: The full-length human S16A/Y23A mutant Pin1 was expressed and purified from E. coli; made in house
Description: (§1) (FIG. 37A) Binding to FITC-labeled peptide 37 to Pin1 as analyzed by fluorescent anisotropy (FA). (FIG. 37B) Competition between peptide 37 and FITC-labeled peptide 1 (100 nM) for binding to Pin1 (400 nM) as monitored by FA. (FIG. 37C) Effect of peptide 37 on the cis-trans isomerase activity of Pin1, Pin4, FKBP12, and cyclophilin A using Suc-Ala-Glu-Pro-Phe-pNA as substrate. (FIG. 37D) Comparison of the serum stability of peptides 1 and 37.
(§2) To determine whether peptide 37 binds to the catalytic site of Pin1, its ability to compete with peptide 1 for binding to Pin1 by FA analysis was examined. […] Next, the catalytic activity of Pin1 toward a peptide substrate, Suc-Ala-Glu-Pro-Phe-pNA, in the presence of increasing concentrations of peptide 37 was monitored.

Pin1 [5] = target: T2, Pin1; experiment: cis-trans isomerase activity, Suc-Ala-Glu-Pro-Phe-pNA; assay type: biochemical; conditions: substrate Suc-Ala-Glu-Pro-Phe-pNA; read-out: IC50 for Pin1 catalytic activity
Description: as §1, §2

Pin1 [6] = target: T2, Pin1; experiment: Pin1 binding by FA (FITC-labeled peptides); conditions: FITC-labeled peptide, FA; read-out: KD
Description: FA experiments were carried out by incubating 100 nM FITC-labeled peptide with varying concentrations of protein in 20 mM HEPES (pH 7.4), 150 mM NaCl, 2 mM magnesium acetate, and 0.1% bovine serum albumin (BSA) for 2 h at room temperature. The FA values were measured on a Molecular Devices Spectramax M5 plate reader, with excitation and emission wavelengths at 485 and 525 nm, respectively. Equilibrium dissociation constants (KD) were determined by plotting the FA values as a function of protein concentration and fitting the curve to the following equation:

cyclophilin A = cyclophilin A (Homo sapiens, UniProt P62937); experiment: cis-trans isomerase activity; assay type: biochemical; conditions: up to 5 μM
Description: as §1
(§3) The selectivity of peptide 37 was assessed by two different tests. First, peptide 37 was tested for binding to a panel of arbitrarily selected proteins including bovine serum albumin (BSA), protein tyrosine phosphatases 1B, SHP1, and SHP2, the Grb2 SH2 domain, Ras, and tumor necrosis factor-a. […] Peptide 37 was next tested for potential inhibition of Pin4, FKBP12, and cyclophilin A, the three other common human peptidyl-prolyl cis-trans isomerases. […] Peptide 37 had no effect on the catalytic activity of FKBP12 or cyclophilin A up to 5 μM concentration.

Pin4 = Pin4 (Homo sapiens, UniProt Q9Y237); experiment: cis-trans isomerase activity; assay type: biochemical
Description: as §1, §3

FKBP12 = FKBP12 (Homo sapiens, UniProt P62942); experiment: cis-trans isomerase activity; assay type: biochemical; conditions: up to 5 μM
Description: as §1, §3

HeLa cells [7] = experiment: Cellular uptake by flow cytometry; assay type: cell-based, human
Description: The cellular uptake efficiency of peptide 37, peptide 1, and a previously reported membrane-impermeable monocyclic Pin1 inhibitor (Table 18, peptide 46) was assessed by incubating HeLa cells with the FITC-labeled peptides (5 μM) for 2 h and quantifying the total intracellular fluorescence by flow cytometry analysis. […] By contrast, cells treated with peptides 1 and 37 gave MFI values of 2562 and 8792, respectively. Thus, peptide 37 is internalized by HeLa cells ˜4-fold more efficiently than peptide 1. Presumably, the negative charged phosphate group of peptide 1 interacted electrostatically with the positively charged CPP motif and reduced the cellular uptake efficiency of the latter.

[8] = target: bovine serum albumin (BSA) (Bos taurus, UniProt P02769); experiment: biochemical; assay type: binding
Description: as §3

SHP2 = SHP2 (Homo sapiens, UniProt Q06124); experiment: Selectivity panel binding
Description: as §3

Ras = experiment: Selectivity panel binding
Description: as §3

tumor necrosis factor-a = tumor necrosis factor-a (Homo sapiens, UniProt P01375); experiment: Selectivity panel binding
Description: as §3

SHP1 = SHP1 (Homo sapiens, UniProt P29350); experiment: Selectivity panel binding
Description: as §3

[9] = target: protein tyrosine phosphatases 1B (Homo sapiens, UniProt P18031); experiment: Selectivity panel binding
Description: as §3

Grb2 SH2 domain = target: T3, Grb2 SH2 domain (Homo sapiens, UniProt P62993); experiment: Selectivity panel binding
T3 construct: the Grb2 SH2 domain
Description: as §3

[10] = test system: mouse ventricular cardiac myocytes; experiment: Live-cell confocal microscopy of cardiomyocytes; assay type: cell-based; conditions: 5 μM peptide or 6 μM conjugate, 3 h
Description: FIGS. 35A, 35B, 35C, and 35D display live cell confocal images of mouse ventricular cardiac myocytes after treatment for 3 h with 5 μM c(FΦRRRRQ)-K(FITC) (FIG. 35A) and c(fΦRrRrQ)-K(FITC) (FIG. 35B).
The disclosed cyclic CPPs are very effective in delivering proteins into cardiomyocytes. Fluorescein isothiocyanate (FITC)-labeled cyclic CPPs [c(FΦRRRRQ)-K(FITC)-NH2 and c(fΦRrRrQ)-K(FITC)-NH2] were synthesized and their internalization into mouse ventricular cardiac myocytes was tested by treating the cells with 5 μM FITC-labeled peptide for 3 h. After washing away the extracellular peptides, the internalization of CPPs was examined by fluorescent live-cell confocal microscopy. […] Whether the cyclic CPPs are capable of transporting full-length proteins into cardiac muscle cells was tested. Calmodulin (with an engineered Thr5Cys), a multifunctional calcium-binding messenger protein, was conjugated to c(FΦRRRRQ)-C-NH2 at the Cys residue near N-terminus through a disulfide bond. The disulfide exchange reaction is highly specific, efficient, and reversible. Further, upon entering the cytosol of cells, the disulfide linkage is expected to be reduced to release the native protein (FIG. 35c). The CPP-protein conjugate was chemically labeled on amino-groups with cyanine3, which permits visualization of the internalized calmodulin. […]

T2 sequence (Q13526 whole entry S16A/Y23A): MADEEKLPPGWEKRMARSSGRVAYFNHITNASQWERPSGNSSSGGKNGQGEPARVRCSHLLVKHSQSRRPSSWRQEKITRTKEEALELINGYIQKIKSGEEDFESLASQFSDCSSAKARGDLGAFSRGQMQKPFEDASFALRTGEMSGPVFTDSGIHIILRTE
Sequence of Pin4 (Q9Y237 whole entry): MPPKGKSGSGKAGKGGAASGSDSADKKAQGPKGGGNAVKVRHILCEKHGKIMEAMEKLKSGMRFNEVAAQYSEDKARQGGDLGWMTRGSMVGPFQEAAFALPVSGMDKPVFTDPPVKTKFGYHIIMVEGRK
Sequence of tumor necrosis factor-a (P01375 77-233 limits assumed): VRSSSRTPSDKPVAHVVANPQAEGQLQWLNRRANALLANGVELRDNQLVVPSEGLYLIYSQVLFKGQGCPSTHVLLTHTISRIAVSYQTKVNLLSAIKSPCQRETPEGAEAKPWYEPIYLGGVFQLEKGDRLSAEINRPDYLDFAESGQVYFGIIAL
Sequence of SHP1 (P29350 whole entry): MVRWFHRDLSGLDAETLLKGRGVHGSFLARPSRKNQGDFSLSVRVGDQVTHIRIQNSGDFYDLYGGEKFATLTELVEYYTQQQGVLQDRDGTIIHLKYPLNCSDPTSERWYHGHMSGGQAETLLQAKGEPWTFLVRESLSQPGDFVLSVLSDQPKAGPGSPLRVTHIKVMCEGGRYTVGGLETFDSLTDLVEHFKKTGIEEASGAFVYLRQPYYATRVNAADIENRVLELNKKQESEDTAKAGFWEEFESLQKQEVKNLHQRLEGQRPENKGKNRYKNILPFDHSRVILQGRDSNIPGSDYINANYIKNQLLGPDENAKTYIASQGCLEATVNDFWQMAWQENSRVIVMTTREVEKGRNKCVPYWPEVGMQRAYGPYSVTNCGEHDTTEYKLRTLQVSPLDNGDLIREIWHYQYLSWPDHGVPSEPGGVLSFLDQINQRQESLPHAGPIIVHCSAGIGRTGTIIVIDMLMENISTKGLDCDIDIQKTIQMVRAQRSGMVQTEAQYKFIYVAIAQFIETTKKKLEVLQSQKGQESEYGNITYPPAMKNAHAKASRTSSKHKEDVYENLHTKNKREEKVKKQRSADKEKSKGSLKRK
Sequence of SHP2 (Q06124 whole entry, species assumed): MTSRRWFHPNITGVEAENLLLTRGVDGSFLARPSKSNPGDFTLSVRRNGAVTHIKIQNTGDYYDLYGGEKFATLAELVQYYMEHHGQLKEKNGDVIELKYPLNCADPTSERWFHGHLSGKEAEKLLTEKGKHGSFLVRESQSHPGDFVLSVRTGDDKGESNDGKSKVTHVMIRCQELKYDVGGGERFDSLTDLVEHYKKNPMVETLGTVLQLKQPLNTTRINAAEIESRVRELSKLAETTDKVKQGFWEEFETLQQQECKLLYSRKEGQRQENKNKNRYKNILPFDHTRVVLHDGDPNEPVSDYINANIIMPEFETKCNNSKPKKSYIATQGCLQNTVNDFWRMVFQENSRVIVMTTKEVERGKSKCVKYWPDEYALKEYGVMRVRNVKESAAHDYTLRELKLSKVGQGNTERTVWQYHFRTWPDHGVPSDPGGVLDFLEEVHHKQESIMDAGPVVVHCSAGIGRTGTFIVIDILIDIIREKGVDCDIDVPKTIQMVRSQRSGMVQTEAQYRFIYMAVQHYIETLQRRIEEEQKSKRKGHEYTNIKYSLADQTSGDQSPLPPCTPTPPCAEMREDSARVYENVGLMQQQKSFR
Sequence of bovine serum albumin (BSA) (P02769 25-607): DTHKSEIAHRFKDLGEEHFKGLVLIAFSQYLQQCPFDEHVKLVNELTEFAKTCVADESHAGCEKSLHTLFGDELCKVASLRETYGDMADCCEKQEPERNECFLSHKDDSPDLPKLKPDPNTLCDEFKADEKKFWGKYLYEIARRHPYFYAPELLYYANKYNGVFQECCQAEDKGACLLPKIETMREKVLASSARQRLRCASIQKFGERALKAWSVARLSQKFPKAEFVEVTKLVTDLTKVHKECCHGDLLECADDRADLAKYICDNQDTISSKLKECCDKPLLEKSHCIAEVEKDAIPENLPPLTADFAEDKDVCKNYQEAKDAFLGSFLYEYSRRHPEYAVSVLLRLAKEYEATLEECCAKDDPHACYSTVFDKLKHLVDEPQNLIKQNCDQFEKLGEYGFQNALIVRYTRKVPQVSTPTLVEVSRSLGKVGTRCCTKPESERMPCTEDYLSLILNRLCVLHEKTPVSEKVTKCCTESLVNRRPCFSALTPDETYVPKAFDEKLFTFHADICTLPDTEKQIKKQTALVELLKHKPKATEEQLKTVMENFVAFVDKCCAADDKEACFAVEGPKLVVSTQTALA
Sequence of cyclophilin A (P62937 whole entry): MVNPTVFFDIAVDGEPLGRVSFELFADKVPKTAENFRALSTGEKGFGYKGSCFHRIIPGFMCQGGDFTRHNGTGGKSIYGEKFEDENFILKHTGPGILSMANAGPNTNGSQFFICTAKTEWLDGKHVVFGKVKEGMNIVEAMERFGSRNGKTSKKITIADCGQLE
Sequence of FKBP12 (P62942 whole entry): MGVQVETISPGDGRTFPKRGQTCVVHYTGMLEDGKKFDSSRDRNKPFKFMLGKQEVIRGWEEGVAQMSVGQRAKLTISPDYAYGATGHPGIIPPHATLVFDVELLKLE
Sequence of protein tyrosine phosphatases 1B (P18031 whole entry): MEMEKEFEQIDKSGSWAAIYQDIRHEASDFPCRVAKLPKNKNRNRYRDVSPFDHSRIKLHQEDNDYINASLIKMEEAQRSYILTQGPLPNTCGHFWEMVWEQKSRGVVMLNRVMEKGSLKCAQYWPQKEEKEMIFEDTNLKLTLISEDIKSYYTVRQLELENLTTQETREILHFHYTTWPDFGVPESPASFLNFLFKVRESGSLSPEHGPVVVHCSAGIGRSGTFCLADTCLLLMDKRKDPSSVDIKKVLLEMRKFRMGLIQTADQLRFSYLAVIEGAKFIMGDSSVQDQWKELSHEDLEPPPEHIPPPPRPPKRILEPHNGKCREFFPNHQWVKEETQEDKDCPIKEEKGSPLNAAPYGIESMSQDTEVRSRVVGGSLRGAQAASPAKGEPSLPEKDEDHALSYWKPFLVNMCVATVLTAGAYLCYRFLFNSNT
T3 sequence (P62993 60-152 limits assumed): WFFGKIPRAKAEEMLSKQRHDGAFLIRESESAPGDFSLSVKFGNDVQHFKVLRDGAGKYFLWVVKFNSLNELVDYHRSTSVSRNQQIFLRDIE

Compound: A^c−RRRRRRRRRDΩUD^−A^mc (not fully specified (N-terminus, C-terminus); printed as Ac−RRRRRRRRRDΩUD−Amc) [Peptide 7 (Example 2)]
- In vitro activity against recombinant caspase-3 enzyme, ΔFU/min [1]: 45.3 ± 6.5 ΔFU/min

Compound: C[C@@H]1NC(=O)[C@H](CCCNC(=N)N)NC(=O)[C@H](Cc2ccc3ccccc3c2)NC(=O)[C@@H]2CCCCN2C(=O)[C@@H]([C@H](C)O)NC(=O)[C@H](Cc2ccc(F)cc2)NC(=O)[C@@H](Cc2ccc(F)cc2)NC(=O)c2cc3cc(c2)C(=O)NC[C@H](NC(=O)[C@@H](Cc2ccccc2)NC1=O)C(=O)N[C@@H](Cc1ccccc1)C(=O)N[C@@H](Cc1ccc2ccccc2c1)C(=O)N[C@@H](CCCNC(=N)N)C(=O)N[C@@H](CCCNC(=N)N)C(=O)N[C@@H](CCCNC(=N)N)C(=O)N[C@@H](CCCNC(=N)N)C(=O)N[C@H](C(=O)N[C@@H](CCCCN)C(N)=O)CNC3=O [Peptide 37, bicyclo[Tm-(D-4-Fpa-Fpa-D-Thr-Pip-Nal-Arg-Ala-D-Phe)-Dap-(Phe-Nal-Arg-Arg-Arg-Arg-Dap)]-Lys] ([dPhe(4-F)][Phe(4-F)][dT][Pip][2Nal]RA[dF][Dap]F[2Nal]RRRR[Dap]K-NH2; linker N-9-16 via Trimesoyl; C-terminus assumed)
- Increase in the PML level (HeLa cells [2]; 0.2 μM inhibitor): 1.8 fold
- Effect on the PML level (HeLa cells [2]; 0.2-5 μM): concentration-dependent increases in the PML level
- Increase in the PML level (plateau) (HeLa cells [2]; ~1 μM inhibitor): 3.3 fold
- Growth inhibition (HeLa cells [3]; 3-day treatment with 5 μM): > 60%
- pIC50 (HeLa cells [3]; read-out: IC50 of HeLa cell growth, MTT): 6.00
- pIC50 (Pin1 [4]): 6.72
- pIC50 (Pin1 [5]): 6.77
- pKd (Pin1 [6]): 6.92
- Effect on catalytic activity of cyclophilin A (cyclophilin A): no effect
- inhibition at 5 µM (Pin4; 5 μM inhibitor): ~15%
- pIC50 (Pin4; estimated): ~4.47
- Effect on catalytic activity of FKBP12 (FKBP12): no effect
- Internalization more efficient than peptide 1 (HeLa cells [7]): ~4 fold
- Mean fluorescence intensity (MFI) (HeLa cells [7]; 5 μM FITC-labeled peptide, 2 h): 8792
- pKd [8]: ~4.70
- Binding to SHP2 (SHP2): not any of the other six proteins
- Binding to Ras (Ras): not any of the other six proteins
- Binding to tumor necrosis factor-a (tumor necrosis factor-a): not any of the other six proteins
- Binding to SHP1 (SHP1): not any of the other six proteins
- Binding to protein tyrosine phosphatase 1B [9]: not any of the other six proteins
- Binding to Grb2 SH2 domain (Grb2 SH2 domain): not any of the other six proteins

Compound: c(fΦRrRrQ)-K(FITC)-NH2
- Internalization into cardiac muscle cells (confocal) [10]: efficient internalization
